In series [1] the test system is HCT-116. Put plainly: Cytotoxicity against human HCT-116 cells assessed as cell growth inhibition. It is filed as functional, cell-based.
The test system of series [2] is T47D. As to the kind of experiment: Cytotoxicity against human T47D cells assessed as cell growth inhibition. It is filed as functional, cell-based.
The test system of series [3] is QG-56. As to the kind of experiment: Cytotoxicity against human QG-56 cells assessed as cell growth inhibition. The series is classed as functional, cell-based.
In series [4] the test system is ASPC1. Put plainly: Cytotoxicity against human ASPC1 cells assessed as cell growth inhibition. The series is classed as functional, cell-based.
Series [5] has as its system HCT-116. Put plainly: Cytotoxicity against human HCT-116 cells assessed as cell growth inhibition incubated for 4 days by Cell counting kit-8 assay. The series is classed as functional, cell-based. As to conditions: HCT-116, 96 h.
For series [6], the system named is QG-56. Put plainly: Cytotoxicity against human QG-56 cells assessed as cell growth inhibition incubated for 4 days by Cell counting kit-8 assay. As to conditions: QG-56, 96 h. It is filed as functional, cell-based.
The test system of series [7] is DU-145. As to the kind of experiment: Cytotoxicity against human DU-145 cells assessed as cell growth inhibition incubated for 4 days by Cell counting kit-8 assay. The series is classed as functional, cell-based. Conditions: DU-145, 96 h.
Series [8] concerns DU-145. As to the kind of experiment: Cytotoxicity against human DU-145 cells assessed as cell growth inhibition. The series is classed as functional, cell-based.
In series [9] the test system is A549. Put plainly: Cytotoxicity against human A549 cells assessed as cell growth inhibition. The series is classed as functional, cell-based.
Series [10] concerns HL-60. Put plainly: Cytotoxicity against human HL-60 cells assessed as cell growth inhibition. It is filed as functional, cell-based.
Series [11] deals with HL-60. As to the kind of experiment: Cytotoxicity against human HL-60 cells assessed as cell growth inhibition by MTT assay. The series is classed as functional, cell-based.
Series [12] is described as follows: Cytotoxicity against human HEK293 cells assessed as cell growth inhibition. The series is classed as toxicity, cell-based.
Series [13] has as its system A549. As to the kind of experiment: Cytotoxicity against human A549 cells assessed as cell growth inhibition by SRB assay. It is filed as functional, cell-based.
The test system of series [14] is Leishmania amazonensis. Put plainly: Antileishmanial activity against Leishmania amazonensis promastigotes assessed as reduction on parasite growth by green fluorescent protein based microplate reader assay. It is filed as functional, organism-based.
The test system of series [15] is NCI-H292. Put plainly: Antiproliferative activity against human NCI-H292 cells assessed as cell growth inhibition incubated for 4 hrs by MTT assay. The series is classed as functional, cell-based. As to conditions: NCI-H292, 4 h.

Experimental findings from ChEMBL document CHEMBL5126503, “Renieramycin-type alkaloids from marine-derived organisms: Synthetic chemistry, biological activity and structural modification” (Eur J Med Chem, 2021) are described below.

Molecules are shown by their SMILES. pIC50: −log10 of the molar value. Values after ≈ are worked out from the molar mass of the structure shown.

`C/C=C(/C)C(=O)OC[C@H]1c2c(c(OC(C)=O)c(C)c3c2OCO3)C[C@H]2[C@H]3C4=C(C[C@@H]([C@H](C#N)N12)N3C)C(=O)C(C)=C(OC)C4=O`: the pIC50 was 7.47 in [1], 8.00 in series [2], 7.10 in series [3] and 6.92 in [4].
In the case of `COC1=C(C)C(=O)C2=C(C1=O)[C@H](CO)N1[C@@H](C#N)[C@@H]3C(=O)c4c(O)c(C)c(OC)c(O)c4[C@H]([C@@H]1C2)N3C`, the pIC50 in series [5], in series [6] and in series [7] was 6.35 throughout.
Regarding `COC1=C(C)C(=O)C2=C(C1=O)[C@H](COC(C)=O)N1[C@@H](C2)CN(C)C[C@@H]1C#N`, the negative-log IC50 (pIC50) is 7.27 in series [1], 6.66 in [3] and 6.00 in series [8].
As to `C/C=C(/C)C(=O)OC[C@H]1C2=C(C[C@H]3[C@H]4C5=C(C(=O)C(C)=C(OC)C5=O)[C@H](O)[C@@H]([C@H](CC(C)=O)N13)N4C)C(=O)C(C)=C(O)C2=O`, the pIC50 in series [9] and in series [10] was less than 4.00 each time.
For `C/C=C(/C)C(=O)OC[C@H]1C2=C(C[C@H]3[C@H]4C5=C(C(=O)C(C)=C(OC)C5=O)[C@H](OCC)[C@@H]([C@H](CC(C)=O)N13)N4C)C(=O)C(C)=C(O)C2=O`, the negative-log IC50 (pIC50) in series [9] and in series [10] was less than 4.00 throughout.
Turning to `C/C=C(/C)C(=O)OC[C@H]1C2=C(C[C@H]3[C@H]4C5=C(C[C@@H]([C@H](CC(C)=O)N13)N4C)C(=O)C(C)=C(OC)C5=O)C(=O)C(C)=C(OC)C2=O`, the negative-log IC50 (pIC50) in [11] was less than 4.00; in series [12], 5.15; in [13], less than 4.00.
On to `COC1=C(C)C(=O)C2=C(C1=O)[C@H]1CN(Cc3ccccc3)[C@@H](C#N)[C@H](C2)N1C`, for which the negative-log IC50 (pIC50) in [5] and in [6] was 7.77 each time.
Regarding `COC1=C(C)C(=O)C2=C(C1=O)[C@@H]1[C@@H]3CC4=C(C(=O)C(OC)=C(C)C4=O)[C@H](CO)N3[C@@H](CC(C)=O)[C@H](C2=O)N1C`, the figures for the negative logarithm of the IC50 (pIC50) in series [9], in series [12] and in series [10] were 5.21, 6.00 and 5.60, respectively.
As for `C/C=C(/C)C(=O)OC[C@H]1C2=C(C[C@H]3[C@H]4C5=C(C(=O)C(C)=C(OC)C5=O)[C@H](O)[C@@H](CN13)N4C)C(=O)C(C)=C(OC)C2=O`, the IC50 in series [14] was found to be 0.2 µg/mL (≈ 0.353 µM).
As for `COC1=C(C)C(=O)C2=C(C1=O)[C@@H]1[C@@H]3CC4=C(C(=O)C(OC)=C(C)C4=O)[C@H](COC(=O)CNC(=O)OC(C)(C)C)N3[C@@H](C#N)[C@H](C2)N1C`, the negative-log IC50 (pIC50) in [15] is 8.45.
Turning to `C/C=C(/C)C(=O)OC[C@H]1c2c(c(O)c(C)c3c2OCO3)C[C@H]2[C@H]3C4=C(C[C@@H]([C@H](C#N)N12)N3C)C(=O)C(C)=C(OC)C4=O`, the pIC50 is 7.41 in series [1], 8.33 in [2], 7.11 in [3] and 7.01 in [4].
